# Experimental data published in patent EP0449649A2, “Antineoplastic quinones and methods of using same” (priority 1990, dated 1991).
# Like-named read-outs stand apart in the source and are kept apart here.
# Key:
# [1] = system: doxorubicin-sensitive ovarian cancer (2780/S); test: in vitro screen against doxorubicin-sensitive ovarian cancer; format: cell-based; settings: read-out: IC₅₀
# Source text: (§1) (see: Salmon, S.E. et al, Cancer Treat Rep., 1981, 65, 102; Salmon, S.E. et al, N. Engl. J. Med., 1978, 298, 1231;and Albert, DS, Cancer Chemother Pharmacol, 1981, 6, 253). The protocol employed for MTT assays are reported. (see: Mossman T.J. Immunol Methods, 1983, 65, 55).
# (§2) 6-(N-Aziridinyl)-7-methyl-2, 3-dihydro - 1H- pyrrolo [1, 2-a] benzimidazole-5, 8-dione-3-acetate (1c) was screened for in vitro activity against doxorubicin-sensitive ovarian cancer (2780/S) and 110-fold doxorubicin-resistant ovarian cancer (2780/DOX).
# (§3) 6-(N-Aziridinyl)-7-methyl-2, 3-dihydro - 1H- pyrrolo [1, 2-ª] benzimidazole-5, 8-dione-3-carbamate (1d) was screened for in vitro activity against doxorubicin-sensitive (2780/S) and doxorubicin-resistant (2780/DOX) ovarian cancer.
# [2] = system: WiDr human colon cancer; test: in vitro screen against WiDr colon cancer; format: cell-based; settings: read-out: IC₅₀
# Source text: as §1
# 6-(N-Aziridinyl)-7-methyl-2, 3-dihydro - 1H- pyrrolo [1, 2-ª] benzimidazole-5, 8-dione-3-acetate (1c) was screened for in vitro activity against WiDr human colon cancer.
# 6-(N-Aziridinyl)-7-methyl-2, 3-dihydro - 1H- pyrrolo [1, 2-ª] benzimidazole-5, 8-dione-3-carbamate (1d) was screened for in vitro activity against WiDr/S human colon cancer.
# [3] = system: 8226/S human myeloma; test: in vitro screen against 8226/S myeloma; format: cell-based; settings: read-out: IC₅₀
# Source text: as §1
# 6-(N-Aziridinyl)-7-methyl-2, 3-dihydro - 1H- pyrrolo [1, 2-ª] benzimidazole-5, 8-dione-3-acetate (1c) was screened for in vitro activity against 8226/S human myeloma.
# 6-(N-Aziridinyl)-7-methyl-2, 3-dihydro - 1H- pyrrolo [1, 2-ª] benzimidazole-5, 8-dione-3-carbamate (1d) was screened for in vitro activity against 8226/S myeloma.
# [4] = system: cisplatin-resistant (2008/R) ovarian cancers; test: in vitro screen against cisplatin-resistant ovarian cancer; format: cell-based; settings: for IC₅₀: in vitro
# Source text: as §1
# (§4) 6-(N-Aziridinyl)-7-methyl-2, 3-dihydro - 1H- pyrrolo [1, 2-ª] benzimidazole-5, 8-dione-3-acetate (1c) was screened for in vitro activities against cisplatin-sensitive (2008/S) and cisplatin-resistant (2008/R) ovarian cancers.
# (§5) 6-(N-Aziridinyl)-7-methyl-2, 3-dihydro - 1H- pyrrolo [1, 2-a] benzimidazole-5, 8-dione-3-carbamate (1d) was screened for in vitro activity against cisplatin-sensitive (2008/S) and cisplatin-resistant (2008/R) ovarian cancers.
# [5] = system: SW480 human colon cancer; test: in vitro screen against SW480 colon cancer; format: cell-based
# Source text: as §1
# 6-(N-Aziridinyl)-7-methyl-2, 3-dihydro - 1H- pyrrolo [1, 2-ª] benzimidazole-5, 8-dione-3-acetate (1c) was screened for in vitro activity against SW480 human colon cancer.
# 6-(N-Aziridinyl)-7-methyl-2, 3-dihydro - 1H- pyrrolo [1, 2-ª] benzimidazole-5, 8-dione-3-carbamate (1d) was screened for in vitro activity against SW480 human colon cancer.
# [6] = system: Fresh ovarian tumors; test: clonogenic assay on fresh ovarian tumors from patients; format: cell-based, human
# Method: as §1
# Fresh ovarian tumors were collected from twelve (12) confirmed ovarian cancer patients. Azimitosene 1c was tested in vitro using the clonogenic assay described by Salmon et al, Salmon et al, and Albert et al (op cit). The IC₅₀ data (the drug concentration required to obtain 50% inhibition of tumor colony formation after 1 hour exposure to test compound) obtained from these assays are shown in Table 1.
# [7] = system: 110-fold doxorubicin-resistant ovarian cancer (2780/DOX); test: in vitro screen against doxorubicin-resistant ovarian cancer; format: cell-based; settings: read-out: IC₅₀
# Source text: as §1, §2, §3
# [8] = system: cisplatin-sensitive (2008/S) ovarian cancers; test: in vitro screen against cisplatin-sensitive ovarian cancer; format: cell-based; settings: for IC₅₀: in vitro
# Source text: as §1, §4, §5
Compound,IC50 [1] [nM],IC50 ([2]; WiDr) [nM],IC50 [3] [nM],"IC50 ([4]; Homo sapiens, read-out: IC₅₀) [nM]","IC50 ([5]; SW480, read-out: IC₅₀) [nM]","IC50 ([6]; 50% inhibition of tumor colony formation after 1 hour exposure, each value is the tumor of one patient (Patient No. 1-12))","IC50 ([6]; Homo sapiens, median over the fresh ovarian tumors of Table 1, read-out: median IC₅₀) [µg/mL]",ovarian cancers that respond ([6]; share of the 12 fresh ovarian tumors of Table 1) [%],IC50 [7] [nM],"IC50 ([8]; Homo sapiens, read-out: IC₅₀) [nM]","IC50 ([1]; 2780/S, in vitro) [nM]","IC50 ([2]; WiDr (WiDr/S), in vitro) [nM]","IC50 ([3]; 8226/S, in vitro) [nM]",IC₅₀ [4],"IC50 ([5]; SW480, in vitro, read-out: IC₅₀) [nM]","IC50 ([7]; 2780/DOX, in vitro) [nM]",IC₅₀ [8]
"CC(=O)OC1CCn2c1nc1c2C(=O)C(C)=C(N2CC2)C1=O (stereo not drawn) [1c, 6-(N-aziridinyl)-7-methyl-2,3-dihydro-1H-pyrrolo [1,2-a]benzimidazole-5,8-dione-3-Acetate]",0.6,6,100,7,9,unachievable,0.05,91,16,7,–,–,–,–,–,–,–
"CO[C@@]12[C@H](COC(N)=O)C3=C(C(=O)C(C)=C(N)C3=O)N1C[C@@H]1N[C@@H]12 [MMC, mitomycin C, reference compound]",–,–,–,–,–,–,–,–,–,–,100,20,200,not attainable,7,200,not attainable
"CC1=C(N2CC2)C(=O)c2nc3n(c2C1=O)CCC3OC(N)=O (stereo not drawn) [1d, 6-N-Aziridinyl-7-methyl-2,3-dihydro-1H-pyrrolo [1,2-a]benzimidazole-5,8-dione-3-Carbamate]",100,100,140,–,19,–,–,–,200,–,–,–,–,not attainable,–,–,not attainable
